Experimental data: PubChem BioAssay (NCI)
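These data come from cells grown in 96-well plates and exposed to compound for 48 hours at five concentrations. TGI denotes the concentration required for complete inhibition of growth.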

What was measured:
Experiment in all cases: inhibition of tumour cell growth, NCI panel, 48 h
RXF 393 renal = system: RXF 393 renal
OVCAR-8 ovarian = system: OVCAR-8 ovarian
SK-OV-3 ovarian = system: SK-OV-3 ovarian
DU-145 prostate = system: DU-145 prostate
SW-620 colon = system: SW-620 colon
U251 CNS = system: U251 CNS
PC-3 prostate = system: PC-3 prostate
COLO 205 colon = system: COLO 205 colon
SF-539 CNS = system: SF-539 CNS
786-0 renal = system: 786-0 renal
MCF7 breast = system: MCF7 breast
A549 NSCLC = system: A549 NSCLC
UO-31 renal = system: UO-31 renal
HCT-116 colon = system: HCT-116 colon
SK-MEL-2 melanoma = system: SK-MEL-2 melanoma
UACC-257 melanoma = system: UACC-257 melanoma
NCI-H522 lung = system: NCI-H522 lung
NCI-H460 lung = system: NCI-H460 lung
SR leukemia = system: SR leukemia

SMILES	TGI (RXF 393 renal) [µM]	TGI (OVCAR-8 ovarian) [µM]	TGI (SK-OV-3 ovarian) [µM]	TGI (DU-145 prostate) [µM]	TGI (SW-620 colon) [µM]	TGI (U251 CNS) [µM]	TGI (PC-3 prostate) [µM]	TGI (COLO 205 colon) [µM]	TGI (SF-539 CNS) [µM]	TGI (786-0 renal) [µM]	TGI (MCF7 breast) [µM]	TGI (A549 NSCLC) [µM]	TGI (UO-31 renal) [µM]	TGI (HCT-116 colon) [µM]	TGI (SK-MEL-2 melanoma) [µM]	TGI (UACC-257 melanoma) [µM]	TGI (NCI-H522 lung) [µM]	TGI (NCI-H460 lung) [µM]	TGI (SR leukemia) [µM]
CCN(CC)CCCNc1nc(=O)[nH]c(C)c1C(=O)Nc1ccc2c(c1)c1ccccc1n2CC	> 100	> 100	> 100	> 100	> 100	> 100	> 100	> 100	> 100	> 100	> 100	> 100	> 100	> 100	> 100	> 100	> 100		
Cc1cnc2c(c1)C(=O)C1=C(OC(C)(C)CC1O)C2=O (stereo not given)	29.3	35.6	36.5		28.5	29.3		32.4	31.4	28.2		31.9	29.7	27.9	> 100	27	31.4	23.9	> 100
COC1=CC(=O)c2c(c(COP(=O)(N(C)CCBr)N(C)CCBr)cn2C)C1=O	0.289	0.314	1.88	1.06	0.317	0.448	7.02	0.209	0.0678	0.349	0.671	0.659	0.294		0.315	1.2	0.374	0.983	
NCCCCC(=O)c1cccnc1		> 100	> 100		> 100	> 100			> 100	> 100		> 100	> 100	> 100	> 100	> 100	> 100	> 100	> 100
CC(=O)C(CN(C)C)C(c1ccccc1)c1c(O)c2ccccc2oc1=O (stereo not given)	> 100	> 100	> 100		> 100	> 100		> 100	> 100	> 100		> 100		> 100	> 100	> 100	> 100	> 100	> 100
Nc1c(N2CCOCC2)c(=O)nc2[nH]/c(=C\c3ccccc3)c(=O)n12	> 100	> 100	> 100	> 100	> 100	> 100		> 100	> 100	> 100	> 100	> 100	> 100	> 100		> 100	> 100	> 100	> 100
COc1ccc(/C=C/C(=O)CC(=O)/C=C/c2ccc(OC)cc2)cc1	80	52.7	> 100	> 100	> 100	> 100	> 100	> 100	78.7	89.1	> 100	> 100	> 100	34.5	> 100	> 100	67	> 100	
O=C1NC(N2CCCCC2)=N/C1=C\c1ccccc1O	> 100	> 100	> 100	> 100	> 100	> 100	> 100	> 100	> 100	> 100	> 100	> 100	> 100	> 100	> 100	> 100	> 100		
NC(=O)N/N=C(/Cc1nc2ccc(C(=O)c3ccccc3)cc2[nH]c1=O)C(=O)Nc1ccc(C(F)(F)F)cc1[N+](=O)[O-]		> 100	> 100		> 100	> 100		> 100	> 100	> 100		> 100	> 100	> 100	> 100	> 100	76.3	> 100	> 100
COC(=O)c1ccccc1/C=C1\Cc2c(C)cc(C)cc2C1=O	> 100	> 100			> 100	> 100	> 100		> 100	> 100	> 100	> 100	> 100	> 100	> 100	> 100	> 100	> 100	> 100
Cc1cc(=O)[nH]c(NNC(C#N)c2c(O)ccc3ccccc23)n1 (stereo not given)	23.6	68.2	52.6		29.9	43.3		57	13.7	79.8		18.5	9.92	17.1	27.8	19.8	23.7	17.2	26.3
C=C1C(=O)OC2CC(=C)C3CC=C(C)C3CC12 (stereo not given)		> 100	80		32.4	29.6	28.4	41.7	> 100	31.3	55.3	> 100	29.3	50.4	26.5	27.5	36.2	> 100	55.6
Clc1ccc(-c2ccc(-c3nnc(COc4ccc(OCc5nnc(-c6ccc(-c7ccc(Cl)cc7Cl)o6)o5)c(Cl)c4)o3)o2)c(Cl)c1	73.2	> 100		> 100	> 100	> 100		> 100		> 100	> 100	> 100	> 100	> 100	> 100	> 100	> 100	> 100	74.8
NC(Cc1ccc(S(=O)(=O)O)cc1)C(=O)NC(Cc1ccc(S(=O)(=O)O)cc1)C(=O)NC(Cc1ccc(S(=O)(=O)O)cc1)C(=O)O (stereo not given)	> 100	> 100		> 100	> 100	> 100	> 100	> 100	> 100	> 100	> 100	> 100	> 100	> 100	> 100	> 100	> 100	> 100	
O=[N+]([O-])/C(C(Cl)=C(Cl)Cl)=C(\Nc1ccccc1)n1nnc2ccccc21		> 100	> 100		> 100	> 100	> 100	> 100	> 100	> 100	> 100	> 100	48.9	> 100	75.2	> 100		> 100	
O=[N+]([O-])C(=C1Nc2ccccc2N1)/C(Cl)=C(/Cl)N1CCOCC1		> 100	> 100		> 100	> 100	> 100	> 100	> 100	> 100	> 100	> 100	> 100	> 100	> 100	> 100		> 100	
Cc1ccc(/C=C2\CCCC(CN(C)C)C2=O)cc1 (stereo not given)	3.34		26.4	21.9	2.88	26.4	8.9	3.13	6.61	3.23	1.92	30.9	3.12	3.1	15.4	3.99	1.98	13.1	
COc1cc(Nc2nnc3n2S(=O)(=O)c2cc(C)c(Cl)cc2S3)cc(OC)c1	49.3	81.1	31.4	44.2		29.2	47	> 100	6.31	20.5	> 100	30	> 100	> 100		> 100	8.44	> 100	
Cc1sc(C)c2c1C(=O)CC2N (stereo not given)	34.8	44.9	> 100	30.3	26.3	> 100	> 60.6	40.1	14.2	22.5		> 100	29.5	28.9	> 100	33.3	10.9	> 70.2	> 100
CC1(S)CC2C(CC1Sc1ccccc1)C2(C)C (stereo not given)		> 100	> 100			> 100		> 100	> 100	> 100		> 100	> 100	> 100	> 100	> 100		> 100	
CN(C)S(=O)(=O)n1cnc(CO)c1	> 100		> 100		> 100	> 100	> 100	> 100	> 100	> 100	> 100	> 100	> 100	> 100	> 100	> 100	> 100	> 100	
CC(C)C(C/C=C1/CC(CO)(COC(=O)c2ccccc2)OC1=O)C(C)C (stereo not given)	31.2	48.5	> 100		31.9	36.1	28.1	17.4	16.1	23.2	39	26.5	31.5	29.7	> 100	62.4	35	45.7	> 100
